Assay results as given in article PMC8653067 (ChemMedChem, 2021).
“Also recorded” adds a separate entry of the source. Read-outs that look alike come from different tables or passages of the source.

Assays:
PLpro from SARS-CoV-2 [1] = target: T1, PLpro from SARS-CoV-2 (Severe acute respiratory syndrome coronavirus 2, UniProt P0DTD1); type: biochemical; conditions: for Extent of PLpro inhibition in IC50 assay (in words): 5 μM Ub-AMC substrate; for IC50: read-out: IC50 (µM) determined using Ub-AMC as a PLpro substrate, 20 nM PLpro, 5 μM Ub-AMC, triplicates
PLpro from SARS-CoV-2 [2] = target: T1, PLpro from SARS-CoV-2; type: biochemical; conditions: for IC50: read-out: IC50 (µM) determined using Z-LRGG-AMC as a PLpro substrate
PLpro from SARS-CoV-2 [3] = target: T1, PLpro from SARS-CoV-2; type: biochemical
[4] = target: ubiquitin C-terminal hydrolase L3; conditions: read-out: reported IC50 for ubiquitin C-terminal hydrolase L3; cited from earlier work
[5] = Z-LRGG-AMC substrate, highest tested concentration 200 μM
[6] = 200 μM inhibitor, 20 nM PLpro, 50 μM Z-LRGG-AMC
[7] = 20 nM PLpro, 50 μM Z-LRGG-AMC, triplicates

Which results are given for `O=C1c2ccccc2C(=O)c2oc(-c3ccccc3)nc21` [SJB2–043]?
Extent of PLpro inhibition in IC50 assay (in words) (PLpro from SARS-CoV-2 [1]): did not inhibit PLpro completely; IC50 (PLpro from SARS-CoV-2 [1]): 0.091 ± 0.024 µM; Extent of PLpro inhibition in IC50 characterization (in words) (PLpro from SARS-CoV-2 [2]; [5]): only partial inhibition of PLpro; Extent of PLpro inhibition in IC50 characterization (in words) (PLpro from SARS-CoV-2 [2]; Z-LRGG-AMC substrate, highest tested concentration 200 μM, listed as SBJ2–043): can only partially inhibit PLpro; PLpro inhibition in initial screening (PLpro from SARS-CoV-2 [3]; [6]): inhibited PLpro partially but at significant levels

Which “Extent of PLpro inhibition in IC50 assay (in words)” value (PLpro from SARS-CoV-2 [1]) does the source give for `C=CCO/N=C1\c2ccccc2-c2nc(C#N)c(C#N)nc21` [DUB-IN-3] here?
Its value is “simple inhibition curve that did not reach its plateau at the highest inhibitor concentration”.

What about the IC50 (PLpro from SARS-CoV-2 [1]) of the same compound?
The IC50 was over 10 µM.

And the “Extent of PLpro inhibition in IC50 characterization (in words)” value (PLpro from SARS-CoV-2 [2])?
The value was “only partial inhibition of PLpro”.

For `CC(=O)c1cc([N+](=O)[O-])c(Sc2cccc(Cl)c2Cl)s1` [P005091], which IC50 (PLpro from SARS-CoV-2 [2]; [7]) is on record?
The IC50 was over 100 µM.

And the “PLpro inhibition in initial screening” value (PLpro from SARS-CoV-2 [3]; [6])?
The value was “inhibited PLpro partially but at significant levels”.

Which “Extent of PLpro inhibition in IC50 characterization (in words)” value (PLpro from SARS-CoV-2 [2]; [5]) does the source give for `Cc1ccc(S(=O)(=O)Nc2cc(C(F)(F)F)ccc2C(=O)Nc2nc(-c3ccccc3)cs2)cc1` [ML364] here?
The value was “did not show strong concentration-dependent inhibition of PLpro”.

And the “PLpro inhibition in initial screening” value (PLpro from SARS-CoV-2 [3]; [6])?
Its value is “significant quenching effects leading to negative signals”.

What does the source list for HBX19818?
IC50 (PLpro from SARS-CoV-2 [2]; [7]): > 100 µM; PLpro inhibition in initial screening (PLpro from SARS-CoV-2 [3]; [6]): inhibited PLpro partially but at significant levels

For `O=C1c2ccccc2C(=O)c2oc(-c3cccnc3)nc21` [SJB3–019A], which “Extent of PLpro inhibition in IC50 characterization (in words)” value (PLpro from SARS-CoV-2 [2]; [5]) is on record?
The value was “only partial inhibition of PLpro”.

What about the IC50 (PLpro from SARS-CoV-2 [2]; [7]) of the same compound?
The IC50 was 8.15 ± 3.59 µM.

And the “PLpro inhibition in initial screening” value (PLpro from SARS-CoV-2 [3]; [6])?
Its value is “inhibited PLpro partially but at significant levels”.

What does the source list for `CC(=O)c1cc([N+](=O)[O-])c(Sc2ccc(F)cc2F)s1` [P22077]?
IC50 (PLpro from SARS-CoV-2 [2]; [7]): > 100 µM; PLpro inhibition in initial screening (PLpro from SARS-CoV-2 [3]; [6]): inhibited PLpro partially but at significant levels

With `C=CC(=O)N1CC/C(=C\c2ccc(F)c([N+](=O)[O-])c2)C(=O)/C(=C/c2ccc(F)c([N+](=O)[O-])c2)C1` [VLX1570] as the compound, how does the IC50 (PLpro from SARS-CoV-2 [2]; [7]) read?
The IC50 was over 100 µM.

With `O=C1CC(=O)c2c(Cl)c(Cl)c(Cl)c(Cl)c21` [TCID] as the compound, how does the IC50 [4] read?
The IC50 was 0.6 µM.

What about the IC50 (PLpro from SARS-CoV-2 [1]) of the same compound?
The IC50 was 10.5 ± 2.7 µM.

And the “Extent of PLpro inhibition in IC50 characterization (in words)” value (PLpro from SARS-CoV-2 [2])?
The value was “can fully inhibit PLpro at 200 µM”.

And the “PLpro inhibition in initial screening” value (PLpro from SARS-CoV-2 [3])?
Its value is “inhibited PLpro activity almost completely”.

For `Cc1ccc(/C=C2\CNC/C(=C\c3ccc(C)cc3)C2=O)cc1` [NSC63283], which IC50 (PLpro from SARS-CoV-2 [2]; [7]) is on record?
Its IC50 is over 100 µM.

Which IC50 (PLpro from SARS-CoV-2 [2]) does the source give for `CCO/N=C1\c2ccccc2-c2nc(C#N)c(C#N)nc21` [DUB-IN-2] here?
Its IC50 is over 100 µM.

For `CC(=O)O/N=C1\C(=O)N(Cc2cc(Cl)ccc2Cl)c2ccc(Cl)cc21` [LDN-57444], which IC50 (PLpro from SARS-CoV-2 [2]; [7]) is on record?
Its IC50 is over 100 µM.

What about the “PLpro inhibition in initial screening” value (PLpro from SARS-CoV-2 [3]; [6]) of the same compound?
Its value is “inhibited PLpro partially but at significant levels”.

For `N#Cc1nc2c(nc1C#N)-c1ccccc1/C2=N\OCc1ccccc1` [DUB-IN-1], which IC50 (PLpro from SARS-CoV-2 [2]; [7]) is on record?
The IC50 was over 100 µM.

Which IC50 (PLpro from SARS-CoV-2 [1]) does the source give for `N#CSc1cc(SC#N)c(N)nc1N` [PR-619] here?
Its IC50 is 12.9 ± 2.4 µM.

What about the “Extent of PLpro inhibition in IC50 characterization (in words)” value (PLpro from SARS-CoV-2 [2]; [5]) of the same compound?
Its value is “strongly inhibited PLpro at concentrations above 1 μM; also recorded: can fully inhibit PLpro at 200 µM”.

What about the “PLpro inhibition in initial screening” value (PLpro from SARS-CoV-2 [3]; [6]) of the same compound?
Its value is “significant quenching effects leading to negative signals”.
